Read-outs that look alike come from different tables or passages of the source.
Legend:
[1] = Table 1; cited from earlier work
[2] = From the text: Parameters such as the lethal dose 50 (LD50), lethal concentration 50 (LC50), cardiac sensitization, skin irritation, and mutagenicity (e.g., via the Ames test) can be used as toxicity metrics. The LDn or LCn abbreviations, where n is the percent lethality, are used for the dose of a toxicant lethal to n % of a test population. […] Cardiac sensitization is a measure of the ability of a compound to cause cardiac arrhythmia under stress.
The property modification components are chosen from a list of potential replacement solvents. These compounds included halogenated compounds such as halogenated acetates, alcohols, alkanes, cycloalkanes, alkenes, cycloalkenes, amines, anhydrides, aromatics, carbonyls, diones, esters, ethers, heterocyclics and ketones.

[3] = solubility parameter, Table 1; cited from earlier work
[4] = cardiac sensitization relative to CFC-113

Compound	BP [1]	CS/CS113 [2, 4]	SP [3]	CS/CS113 [2]
1-bromo-bis(perfluoromethyl)ethylene	45.1 C.	42.7	7.06 (cal/cm^3)^1/2	
OC(C(F)(F)F)(C(F)(F)F)C(F)(F)F [1,1,1,3,3,3-hexafluoro-2-(trifluoromethyl)-2-propanol]	46.0 C.	61.2	6.84 (cal/cm^3)^1/2	
FC(F)(Br)C=C(C(F)(F)F)C(F)(F)F [1,1,1,4,4-pentafluoro-4-bromo-2-trifluoromethyl-2-butene]	61.0 C.	105.5	6.77 (cal/cm^3)^1/2	
O=C(CC(=O)C(F)(F)F)C(F)(F)F [1,1,1,5,5,5-hexafluoro-2,4-pentanedione]	69.9 C.		6.90 (cal/cm^3)^1/2	140.5
O=C(CC(F)(F)F)C(F)(F)Br [1,1,4,4,4-pentafluoro-1-bromo-2-butanone]	89.0 C.	17.1	7.89 (cal/cm^3)^1/2	
O=C(CC(F)(F)F)CC(F)(F)Br [1,1,5,5,5-pentafluoro-1-bromo-3-pentanone]	118.4 C.	34.2	7.89 (cal/cm^3)^1/2	
FC(F)(F)C(F)(F)C(F)(F)C(F)(F)/C=C\C(F)(F)C(F)(F)C(F)(F)C(F)(F)F [1,2-(Z)-bis(perfluoro-n-butyl)ethylene]	132.0 C.	1188.5	6.81 (cal/cm^3)^1/2	
FC1(F)C(Cl)=C(Cl)C(F)(F)C(F)(F)C1(F)F [1,2-dichloro-3,3,4,4,5,5,6,6-octafluoro-cyclohexene]	123.8 C.	15.5	7.55 (cal/cm^3)^1/2	
FC1(F)C(Cl)=C(Cl)C(F)(F)C1(F)F [1,2-dichloro-hexafluoro-cyclopentene]	90.0 C.	9.9	7.90 (cal/cm^3)^1/2	
FC(Cl)C(F)(F)C(F)(F)Cl (stereo not shown) [1,3-dichloro-1,1,2,2,3-pentafluoropropane]	52.7 C.	9.2	7.31 (cal/cm^3)^1/2	
FC1=C(OCC(F)(F)F)C(F)(F)C(F)(F)C(F)(F)C1(F)F [1-(2,2,2-trifluoroethoxy)nonafluoro-cyclohexene]	113.7 C.	70.2	7.51 (cal/cm^3)^1/2	
C=C(OC(F)(F)Br)C(F)(F)F [1-(bromodifluoromethoxy)-1-(trifluoromethyl)ethene]	66.3 C.	27.7	7.67 (cal/cm^3)^1/2	
FC(OC(F)(F)Br)=C(C(F)(F)F)C(F)(F)F [1-(bromodifluoromethoxy)-2-(trifluoromethyl)-1,3,3,3-tetrafluoro-1-propene]	78.6 C.	187.0	7.06 (cal/cm^3)^1/2	
FC(F)(Br)OC=C(C(F)(F)F)C(F)(F)F [1-(bromodifluoromethoxy)-2-(trifluoromethyl)-3,3,3-trifluoro-1-propene]	78.3 C.	151.6	7.26 (cal/cm^3)^1/2	
FC(Br)=C(C(F)(F)F)C(F)(F)F [1-bromo-1,3,3,3-tetrafluoro-2-(trifluoromethyl)-1-propene]	51.9 C.	71.9	6.78 (cal/cm^3)^1/2	
FC(F)(F)c1cc(C(F)(F)F)c(Br)c(C(F)(F)F)c1 [1-bromo-2,4,6-tris(trifluoromethyl)benzene]	173.4 C.	113.0	7.76 (cal/cm^3)^1/2	
FC(F)(F)C(=CBr)C(F)(F)F [1-bromo-2-(trifluoromethyl)-3,3,3-trifluoropropene]	49.3 C.	49.4	6.95 (cal/cm^3)^1/2	
FC(F)(Cl)C(F)(Cl)Cl [CFC-113, 1,1,2-trichloro-1,2,2-trifluoroethane, reference compound]	47.6 C.			

— US7736537B1, “Replacement solvents having improved properties for refrigeration flushes” (Mainstream Engineering Corp., priority 2008, dated 2010)
